Bounds are passed on as bounds.

The source of these data is US8901139B2, “Tricyclic indole derivatives and methods of use thereof” (Merck Sharp & Dohme Corp., priority 2008, dated 2014).

This test relates to HCV replicon cells (replicon RNA level). Put plainly: Cell-Based HCV Replicon Assay. The conditions noted are these: Hepatitis C virus, 72 h; replicon RNA by real time PCR (Taqman), day 3; ΔCT=3.2 over baseline. The method, then: To measure cell-based anti-HCV activity of the a Compound of Formula (I), replicon cells were seeded at 5000 cells/well in 96-well collagen I-coated Nune plates in the presence of the Compound of Formula (I). Various concentrations of a Compound of Formula (I), typically in 10 serial 2-fold dilutions, were added to the assay mixture, with the starting concentration ranging from 250 μM to 1 μM. The final concentration of DMSO was 0.5%, fetal bovine serum was 5%, in the assay media. Cells were harvested on day 3 by the addition of 1× cell lysis buffer (Ambion cat #8721). The replicon RNA level was measured using real time PCR (Taqman assay). The amplicon was located in 5B. The PCR primers were: 5B.2F, ATGGACAGGCGCCCTGA (SEQ. ID. NO. 2); 5B.2R, […] (SEQ. ID. NO. 3);the probe sequence was FAM-labeled CACGCCATGCGCTGCGG (SEQ. ID. NO. 4). GAPDH RNA was used as endogenous control and was amplified in the same reaction as NS5B (multiplex PCR) using primers and VIC-labeled probe recommended by the manufacturer (PE Applied Biosystem). The real-time RT-PCR reactions were run on ABI PRISM 7900HT Sequence Detection System using the following program: 48° C. for 30 minutes, 95° C. for 10 minutes, 40 cycles of 95° C. for 15 sec, 60° C. for 1 minute. The ΔCT values (CT5B-CTGAPDH) were plotted against the concentration of test compound and fitted to the sigmoid dose-response model using XLfit4 (MDL). EC50 was defined as the concentration of inhibitor necessary to achieve ΔCT=1 over the projected baseline; EC90 the concentration necessary to achieve ΔCT=3.2 over the baseline. Alternatively, to quantitate the absolute amount of replicon RNA, a standard curve was established by including serially diluted T7 transcripts of replicon RNA in the Taqman assay. All Taqman reagents were from PE Applied Biosystems. Such an assay procedure was described in detail in e.g. Malcolm et al., Antimicrobial Agents and Chemotherapy 50: 1013-1020 (2006).
HCV replicon assay data was calculated for selected compounds of the present invention using this method.
For orientation: In antiviral work, replicon cells carry a viral genome segment that copies itself.
Broadly, the EC90 is the concentration needed for an effect of 90%. Read a low EC90 as an effect from little substance. On to `N#Cc1ccc(F)c(Cn2c(C(=O)O)c(-c3ccc[nH]c3=O)c3c4occc4c(F)cc32)c1` [Compound 129], for which the EC90 is less than 100 nM.
The figure for `O=Cc1ccc(F)c(Cn2c(C(=O)O)c(-c3ccc[nH]c3=O)c3c4occc4c(F)cc32)c1` [Compound 131] is less than 100 nM; for `Cc1cc2[nH]ncc2cc1Cn1c(C(=O)O)c(-c2ccc[nH]c2=O)c2c3occc3c(F)cc21` [Compound 136] it is less than 100 nM; for `O=C(O)c1c(-c2ccc[nH]c2=O)c2c3occc3c(F)cc2n1Cc1cc2cn[nH]c2cc1Cl` [Compound 150] it is less than 100 nM.
The figure for `O=C(O)c1c(-c2ccc[nH]c2=O)c2c3c(c(F)cc2n1Cc1cc2cn[nH]c2cc1Cl)CCO3` [Compound 157] is less than 100 nM; for `Nc1ncnc2cc(F)c(Cn3c(C(=O)O)c(-c4ccc[nH]c4=O)c4c5occc5c(F)cc43)cc12` [Compound 161] it is less than 100 nM.
As for `Cn1cnc2cc(Cl)c(Cn3c(C(=O)O)c(-c4ccc[nH]c4=O)c4c5occc5c(F)cc43)cc21` [Compound 162], the figure is less than 100 nM.
Turning to `O=C(O)c1c(-c2ccc[nH]c2=O)c2c3occc3c(F)cc2n1Cc1cc2c(=O)[nH]cnc2cc1Cl` [Compound 164], the EC90 is less than 100 nM.
As for `O=C(O)c1c(-c2ccc[nH]c2=O)c2c3c(c(F)cc2n1Cc1cc2c(=O)[nH]c(=O)[nH]c2cc1F)CCO3` [Compound 165], the figure is less than 100 nM; as for `O=C(O)c1c(-c2ccc[nH]c2=O)c2c3occc3c(F)cc2n1Cc1cc2cc[nH]c2cc1Br` [Compound 170], less than 100 nM.
As for `Cc1cc2[nH]ncc2cc1Cn1c(C(=O)OCCN(C)C)c(-c2ccc[nH]c2=O)c2c3occc3c(F)cc21` [Compound 172], the figure is less than 100 nM; as for `CN(C)CCOC(=O)c1c(-c2ccc[nH]c2=O)c2c3c(c(F)cc2n1Cc1cc2cn[nH]c2cc1F)CCO3` [Compound 174], less than 100 nM; as for `CN(C)CCOC(=O)c1c(-c2ccc[nH]c2=O)c2c3occc3c(F)cc2n1Cc1cc(N)nc2ccccc12` [Compound 177], less than 100 nM.
The figure for `CN(C)CCOC(=O)c1c(-c2ccc[nH]c2=O)c2c3occc3c(F)cc2n1Cc1cc2c(N)ncnc2cc1F` [Compound 185] is less than 100 nM; for `C=CCNCCOC(=O)c1c(-c2ccc[nH]c2=O)c2c3occc3c(F)cc2n1Cc1cc2cn[nH]c2cc1CC=C` [Compound 188] it is less than 100 nM.
In the case of `CN(C)CCCOC(=O)c1c(-c2ccc[nH]c2=O)c2c3occc3c(F)cc2n1Cc1cc2c(=O)[nH]cnc2cc1F` [Compound 189], the EC90 is less than 100 nM.
